Results from patent US7029868B2, “Cell fusion assays using fluorescence resonance energy transfer” (Merck & Co., Inc., priority 2000, dated 2006).

Tests used:
[1] = system: HIV-1; conditions: SCID-hu mice; Datema et al., 1996; cited from earlier work
[2] = system: HIV-1; conditions: certain cultured cells; Cocchi et al., 1995; cited from earlier work
[3] = system: fusion mediated by CD4, CXCR4, and the HIV-1 Env protein gp143; assay: CHO cell/Jurkat cell fusion assay, β-lactamase/CCF2 FRET readout; format: cell-based; conditions: CHO gp143/HXB2 cells with Jurkat β-lactamase cells
Procedure: Jurkat cells expressing β-lactamase (and which naturally express CXCR4 and CD4) were added to the CHO cells and incubated at 37° C. for a period sufficient to allow fusion to occur. The non-fused cells were removed by washing and the fluorogenic 1β-lactamase substrate CCF2/AM was added to the remaining cells. After a 1 hour incubation at room temperature, cell fusion was measured by fluorescence on a fluorescence plate reader. The ratio of emission of the donor dye (7-hydroxycoumarin) over emission of the acceptor dye (fluorescein) was measured.
Fusion is measured by observing the ratio of blue emission (460 nm) to green emission (530 nm). A high ratio indicates more fusion; a low ratio indicates less fusion.
CHO cells expressing gp143/HXB2 were plated in 96-well black, clear-bottom plates (Costar catalogue number 3603) at 5×10^4 cells per well in 200 μl of medium per well. The medium was Iscove's Modified Dulbecco's Medium (Gibco catalogue number 12440-046) supplemented with: 10% fetal bovine serum, G418 (1 mg/ml), 1 mg/ml penicillin/streptomycin (Gibco catalogue number 15140-122), glutamine (2 mM), and HT (ATCC 71-X).
The cells were incubated overnight at 37° C. […]
The plates were read on a Cytofluor II fluorescence plate reader (PerSeptive Biosystems) at 2 scans/cycle. […]

Compound: c1cc(CN2CCCNCCNCCCNCC2)ccc1CN1CCCNCCNCCCNCC1 [AMD3100]
- inhibition of HIV-1 replication [1]: inhibits HIV-1 replication

Compound: RANTES
- suppression of HIV-1 replication [2]: able to suppress HIV-1 replication

Compound: SDF-1: the natural ligand for CXCR4 (PeproTech Inc.); a chemokine
- inhibition of fusion (in words) [3]: dose-dependent inhibition of fusion
